Results on eleven compounds are retold here after patent EP0305086A2, “Antibiotic A80577 and process for its production” (ELI LILLY AND COMPANY, priority 1987, dated 1989).

The assay relates to Actinomadura verrucosospora A80577. Description: Resistance of the producing culture to antibiotic sensitivity discs on seeded ISP No. 2 agar plates. The format is cell-based. As to conditions: culture A80577 on ISP No. 2 agar. The protocol: Resistance to antibiotics was measured by padding antibiotic sensitivity discs onto the surface of seeded ISP No. 2 agar plates.
A80577 was resistant to: bacitracin 10 units, cephalothin 30 µg, lincomycin 2 µg, oleandomycin 15 µg, penicillin G 10 units, rifampin 5 µg, and tetracycline 30 µg. It was sensitive to: gentamicin 10 µg, neomycin 30 µg, streptomycin 10 µg, tobramycin 10 µg and vancomycin 30 µg.

For `CC(=O)OCC1=C(C(=O)O)N2C(=O)[C@@H](NC(=O)Cc3cccs3)[C@H]2SC1` [cephalothin], the “Resistance to antibiotics (sensitivity disc)” value (“Resistance to antibiotics” for short) (disc 30 µg) was “resistant”.
For `CCC[C@@H]1C[C@@H](C(=O)N[C@@H]([C@H]2O[C@H](SC)[C@H](O)[C@@H](O)[C@H]2O)[C@@H](C)O)N(C)C1` [lincomycin], where the note is “disc 2 µg”, the “Resistance to antibiotics” value is reported as “resistant”.
With `CO[C@H]1C[C@H](O[C@H]2[C@H](C)[C@@H](O[C@@H]3O[C@H](C)C[C@H](N(C)C)[C@H]3O)[C@@H](C)C[C@@]3(CO3)C(=O)[C@H](C)[C@@H](O)[C@@H](C)[C@@H](C)OC(=O)[C@@H]2C)O[C@@H](C)[C@@H]1O` [oleandomycin], the “Resistance to antibiotics” value (disc 15 µg) is recorded as “resistant”.
With `CC1(C)S[C@@H]2[C@H](NC(=O)Cc3ccccc3)C(=O)N2[C@H]1C(=O)O` [penicillin G], where the note is “disc 10 units”, the “Resistance to antibiotics” value is on record as “resistant”.
Regarding `CO[C@H]1/C=C/O[C@@]2(C)Oc3c(C)c(O)c4c(O)c(c(/C=N/N5CCN(C)CC5)c(O)c4c3C2=O)NC(=O)/C(C)=C\C=C\[C@H](C)[C@H](O)[C@@H](C)[C@@H](O)[C@@H](C)[C@H](OC(C)=O)[C@@H]1C` [rifampin], the “Resistance to antibiotics” value (disc 5 µg) is listed as “resistant”.
On to `[H]/N=C(/N)N[C@H]1[C@H](O)[C@@H](O)[C@H](O[C@@H]2O[C@@H](C)[C@](O)(C=O)[C@H]2O[C@@H]2O[C@@H](CO)[C@H](O)[C@@H](O)[C@@H]2NC)[C@@H](N/C(N)=N\[H])[C@@H]1O` [streptomycin], for which, under “disc 10 µg”, the “Resistance to antibiotics” value is recorded as “sensitive”.
The same measure, in the same setting: with `NC[C@H]1O[C@H](O[C@H]2[C@H](O)[C@@H](O[C@H]3O[C@H](CO)[C@@H](O)[C@H](N)[C@H]3O)[C@H](N)C[C@@H]2N)[C@H](N)C[C@@H]1O` [tobramycin] the entry was “sensitive”.
As to `CN[C@H](CC(C)C)C(=O)N[C@H]1C(=O)N[C@@H](CC(N)=O)C(=O)N[C@H]2C(=O)N[C@H]3C(=O)N[C@H](C(=O)N[C@H](C(=O)O)c4cc(O)cc(O)c4-c4cc3ccc4O)[C@H](O)c3ccc(c(Cl)c3)Oc3cc2cc(c3O[C@@H]2O[C@H](CO)[C@@H](O)[C@H](O)[C@H]2O[C@H]2C[C@](C)(N)[C@H](O)[C@H](C)O2)Oc2ccc(cc2Cl)[C@H]1O` [vancomycin], the “Resistance to antibiotics” value (disc 30 µg) is given as “sensitive”.
On to bacitracin, for which the “Resistance to antibiotics” value (disc 10 units) is listed as “resistant”.
For the compound gentamicin, where the note is “disc 10 µg”, the “Resistance to antibiotics” value is reported as “sensitive”.
On to neomycin, for which the “Resistance to antibiotics” value (disc 30 µg) is on record as “sensitive”.
